The values that follow come from ChEMBL document CHEMBL3044827, “Synthesis and in vitro anti-Helicobacter pylori activity of 2-[(chlorobenzyl)thio]-5-(5-nitro-2-furyl)-1,3,4-thiadiazoles” (2008).

Holding throughout (format): functional
Conditions in all cases: read-out: DIZ

The test system of test [1] is Helicobacter pylori. As to the kind of experiment: Antibacterial activity against Helicobacter pylori at 32 ug/disk after 3 to 5 days by paper disk diffusion method.
Test [2] deals with Helicobacter pylori. Briefly: Antibacterial activity against Helicobacter pylori at 1 ug/disk after 3 to 5 days by paper disk diffusion method.
Test [3] concerns Helicobacter pylori. Briefly: Antibacterial activity against Helicobacter pylori at 0.5 ug/disk after 3 to 5 days by paper disk diffusion method. For orientation: In agar diffusion tests the substance spreads into inoculated agar from a disc or well.
Test [4] concerns Helicobacter pylori. As to the kind of experiment: Antibacterial activity against metronidazole-resistant Helicobacter pylori at 8 ug/disk after 3 to 5 days by paper disk diffusion method.
Test [5] deals with Helicobacter pylori. Briefly: Antibacterial activity against metronidazole-sensitive Helicobacter pylori at 16 ug/disk after 3 to 5 days by paper disk diffusion method.
In test [6] the test system is Helicobacter pylori. As to the kind of experiment: Antibacterial activity against Helicobacter pylori at 8 ug/disk after 3 to 5 days by paper disk diffusion method.
For test [7], the system named is Helicobacter pylori. As to the kind of experiment: Antibacterial activity against Helicobacter pylori at 4 ug/disk after 3 to 5 days by paper disk diffusion method.
In test [8] the test system is Helicobacter pylori. As to the kind of experiment: Antibacterial activity against metronidazole-resistant Helicobacter pylori at 16 ug/disk after 3 to 5 days by paper disk diffusion method.
Test [9] deals with Helicobacter pylori. Briefly: Antibacterial activity against metronidazole-sensitive Helicobacter pylori at 32 ug/disk after 3 to 5 days by paper disk diffusion method.
Test [10] concerns Helicobacter pylori. Briefly: Antibacterial activity against Helicobacter pylori at 16 ug/disk after 3 to 5 days by paper disk diffusion method.
The subject of test [11] is Helicobacter pylori. Briefly: Antibacterial activity against metronidazole-resistant Helicobacter pylori at 32 ug/disk after 3 to 5 days by paper disk diffusion method.
The subject of test [12] is Helicobacter pylori. As to the kind of experiment: Antibacterial activity against Helicobacter pylori at 2 ug/disk after 3 to 5 days by paper disk diffusion method.
The test system of test [13] is Helicobacter pylori. Briefly: Antibacterial activity against metronidazole-sensitive Helicobacter pylori at 8 ug/disk after 3 to 5 days by paper disk diffusion method.

Consider `O=[N+]([O-])c1ccc(-c2nnc(SCc3c(Cl)cccc3Cl)s2)o1`, for which the zone of inhibition at 32 µg/disc in [1] was 23.7 mm; in [9] it was 26 mm; in test [11] it was 24 mm. Further, in test [2], the zone of inhibition at 1 µg/disc came to 10.9 mm. In test [3], the zone of inhibition at 0.5 µg/disc was 8.7 mm. In addition, the results for the zone of inhibition at 8 µg/disc in test [4], in test [6] and in test [13] were 20 mm, 19.4 mm and 21 mm, respectively. Besides, the values for the zone of inhibition at 16 µg/disc in [5], in test [8] and in test [10] were 23 mm, 21 mm and 21.9 mm, respectively. Further, the zone of inhibition at 4 µg/disc in [7] came to 15.2 mm. The zone of inhibition at 2 µg/disc in test [12] was 13.1 mm.
On to `O=[N+]([O-])c1ccc(-c2nnc(SCc3ccc(Cl)cc3)s2)o1`, for which the values for the zone of inhibition at 8 µg/disc in test [4] and in [13] were 16 mm and 6 mm, respectively. The zone of inhibition at 16 µg/disc came out at 16 mm in test [5] and 17 mm in test [8]. For the same compound, the zone of inhibition at 32 µg/disc in test [9] worked out at 19 mm; in test [11], 17 mm.
Turning to `Cc1ncc([N+](=O)[O-])n1CCO` [METRONIDAZOLE], in test [6], the zone of inhibition at 8 µg/disc worked out at 16.3 mm.
Consider `O=[N+]([O-])c1ccc(-c2nnc(SCc3cccc(Cl)c3Cl)s2)o1`, for which the zone of inhibition at 8 µg/disc amounted to 6 mm in test [4] and 15 mm in test [13]. Besides, the zone of inhibition at 16 µg/disc in test [5] came out at 16 mm; in test [8], 6 mm. The zone of inhibition at 32 µg/disc was found to be 16 mm in [9] and 17 mm in test [11].
For `O=[N+]([O-])c1ccc(-c2nnc(SCc3ccccc3)s2)o1`, the values for the zone of inhibition at 32 µg/disc in test [1], in test [9] and in test [11] were 24.1 mm, 25 mm and 25 mm, respectively. Further, the zone of inhibition at 1 µg/disc in test [2] worked out at 9.6 mm. In [3], the zone of inhibition at 0.5 µg/disc came to 6.7 mm. Besides, the zone of inhibition at 8 µg/disc was determined as 19 mm in test [4], 17.4 mm in test [6] and 18 mm in test [13]. The zone of inhibition at 16 µg/disc is 22 mm in [5], 22 mm in [8] and 21 mm in test [10]. Also, the zone of inhibition at 4 µg/disc in test [7] was found to be 14.7 mm. The zone of inhibition at 2 µg/disc in test [12] was determined as 12.1 mm.
On to `O=[N+]([O-])c1ccc(-c2nnc(SCc3ccccc3Cl)s2)o1`, for which the zone of inhibition at 32 µg/disc in [1] came out at 21.4 mm; in test [9], 21 mm; in test [11], 22 mm. Besides, in [2], the zone of inhibition at 1 µg/disc amounted to 8.3 mm. For the same compound, the zone of inhibition at 0.5 µg/disc in test [3] turned out to be 6.8 mm. Besides, the zone of inhibition at 8 µg/disc in test [4] turned out to be 18 mm; in [6] it was 17.1 mm; in test [13], 19 mm. For the same compound, the zone of inhibition at 16 µg/disc amounted to 21 mm in test [5], 20 mm in [8] and 18.9 mm in [10]. Also, in test [7], the zone of inhibition at 4 µg/disc worked out at 11.3 mm. Besides, the zone of inhibition at 2 µg/disc in test [12] is 9.4 mm.
For `O=[N+]([O-])c1ccc(-c2nnc(SCc3cccc(Cl)c3)s2)o1`, the figures for the zone of inhibition at 32 µg/disc in test [1], in test [9] and in test [11] were 25.8 mm, 28 mm and 25 mm, respectively. Also, in [2], the zone of inhibition at 1 µg/disc worked out at 13.1 mm. Further, the zone of inhibition at 0.5 µg/disc in test [3] worked out at 10.3 mm. For the same compound, the zone of inhibition at 8 µg/disc in test [4] came to 20 mm; in [6], 20.6 mm; in test [13], 21 mm. Further, the zone of inhibition at 16 µg/disc in test [5] is 25 mm; in test [8] it was 22 mm; in [10] it was 24.1 mm. In addition, in [7], the zone of inhibition at 4 µg/disc is 18.4 mm. Moreover, the zone of inhibition at 2 µg/disc in test [12] is 15.8 mm.
Regarding `CC1(C)S[C@@H]2[C@H](NC(=O)[C@H](N)c3ccc(O)cc3)C(=O)N2[C@H]1C(=O)O` [AMOXICILLIN], the zone of inhibition at 1 µg/disc in test [2] was found to be 24.5 mm.
Take `O=[N+]([O-])c1ccc(-c2nnc(SCc3ccc(Cl)cc3Cl)s2)o1`: the figures for the zone of inhibition at 8 µg/disc in test [4] and in test [13] were 6 mm and 13 mm, respectively. The zone of inhibition at 16 µg/disc in test [5] turned out to be 15 mm; in [8], 6 mm. The results for the zone of inhibition at 32 µg/disc in test [9] and in [11] were 15 mm and 6 mm, respectively.
In the case of `O=[N+]([O-])c1ccc(-c2nnc(SCc3ccc(Cl)c(Cl)c3)s2)o1`, the zone of inhibition at 8 µg/disc came to 6 mm in test [4] and 11 mm in [13]. Moreover, the results for the zone of inhibition at 16 µg/disc in test [5] and in test [8] were 13 mm and 6 mm, respectively. The zone of inhibition at 32 µg/disc in [9] worked out at 15 mm; in [11] it was 12 mm.
